Patent US20240358731A1, “SUMO PATHWAY AS AN OXYGEN SENSOR RELEVANT TO THE PATHOPHYSIOLOGY OF PULMONARY ARTERY HYPERTENSION AND CARDIAC ARRHYTHMIA” (Northeastern University, priority 2023, published 2024)
Entries after “also recorded” stand apart in the source; their conditions may differ.

Key:
[1] = system: human pulmonary artery smooth muscle cells; assay: Whole cell patch clamp of human pulmonary artery smooth muscle cells, ambient O2 vs acute hypoxia; format: cell-based; settings: pretreatment with 100 nM
Source text: FIGS. 10A-10B show whole cell patch clamp recording of human pulmonary artery smooth muscle cells. […] The decrease is statistically significant, *, P<0.05 by Students t-test.
The hPASMCs are in primary culture and were studies by whole cell patch clamp at ambient levels of oxygen (˜21% O2) and under acute hypoxia (2% O2). Cells were studied in quasi-physiological buffers with high external concentrations of potassium using recording protocols.

[2] = target: T1, SUMO activating enzyme (SAE) (Homo sapiens, UniProt Q9UBE0+Q9UBT2); settings: cited from earlier work
T1 sequence (Q9UBE0 1-346): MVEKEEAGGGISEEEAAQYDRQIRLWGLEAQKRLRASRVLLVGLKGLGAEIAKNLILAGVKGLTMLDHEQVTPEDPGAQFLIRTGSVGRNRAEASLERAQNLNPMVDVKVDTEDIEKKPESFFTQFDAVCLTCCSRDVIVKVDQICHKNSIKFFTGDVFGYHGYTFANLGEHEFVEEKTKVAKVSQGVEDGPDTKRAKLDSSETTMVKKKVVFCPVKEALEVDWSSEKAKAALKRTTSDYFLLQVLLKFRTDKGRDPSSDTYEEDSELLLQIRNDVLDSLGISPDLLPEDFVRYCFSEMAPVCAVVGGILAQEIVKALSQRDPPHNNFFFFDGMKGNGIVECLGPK
T1 sequence (Q9UBT2 1-640): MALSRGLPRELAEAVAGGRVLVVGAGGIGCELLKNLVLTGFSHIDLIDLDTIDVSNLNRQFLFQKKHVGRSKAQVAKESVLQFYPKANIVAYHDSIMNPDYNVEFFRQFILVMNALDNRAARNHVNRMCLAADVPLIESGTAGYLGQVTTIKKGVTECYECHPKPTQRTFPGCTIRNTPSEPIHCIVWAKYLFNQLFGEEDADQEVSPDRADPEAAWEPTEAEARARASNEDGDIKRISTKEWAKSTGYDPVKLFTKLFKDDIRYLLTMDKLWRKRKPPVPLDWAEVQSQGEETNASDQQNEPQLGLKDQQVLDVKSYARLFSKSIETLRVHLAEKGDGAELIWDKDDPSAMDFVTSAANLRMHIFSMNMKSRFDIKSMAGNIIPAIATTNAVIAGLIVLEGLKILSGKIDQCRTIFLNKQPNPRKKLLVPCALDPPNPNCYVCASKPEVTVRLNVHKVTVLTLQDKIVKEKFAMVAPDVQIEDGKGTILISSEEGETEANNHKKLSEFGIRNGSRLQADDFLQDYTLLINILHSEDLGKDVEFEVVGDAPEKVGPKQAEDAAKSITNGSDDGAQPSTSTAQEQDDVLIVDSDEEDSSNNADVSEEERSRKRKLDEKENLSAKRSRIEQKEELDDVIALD

[3] = system: Kir2.4 channels; assay: Whole-cell patch-clamp of Kir2.4 currents in transfected HEK293T cells under acute hypoxia; format: cell-based, human
Experimental: Hypoxia diminishes Kir2.4 activity in a TAK981 sensitive manner. HEK293T cells were transiently transfected with plasmid DNA for Kir2.4 channels. Inward rectifying currents were elicited in response to a high [K]^+ (140 mM) buffer using a −80 mV to +80 mV ramp protocol. Following stabilization in the high K^+ buffer, the cells were subjected to a hypoxic (2% O2) perfusate. Acute hypoxia evoked a ˜30% decrease in Kir2.4 currents. Recordings were terminated with the perfusion of 10 mM Ba^2+ (FIGS. 3A, 3B).
Next, we repeated the experiment using that were preincubated with 100 nM TAK981 for one hour. We observed that the hypoxic decrease in Kir2.4 currents was abolished in cells pre-treated with TAK981 (FIGS. 3C, 3D).

[4] = target: T2, Kir2.1 channels (Homo sapiens, UniProt P63252); assay: Whole-cell patch-clamp of heterologous Kir2.1 channels in HEK293T cells under hypoxia; format: cell-based; settings: agent in recording pipette (SENP1 2 μM)
T2 construct: expressed in transfected cells; host or cells: HEK293T
T2 sequence (P63252 1-427): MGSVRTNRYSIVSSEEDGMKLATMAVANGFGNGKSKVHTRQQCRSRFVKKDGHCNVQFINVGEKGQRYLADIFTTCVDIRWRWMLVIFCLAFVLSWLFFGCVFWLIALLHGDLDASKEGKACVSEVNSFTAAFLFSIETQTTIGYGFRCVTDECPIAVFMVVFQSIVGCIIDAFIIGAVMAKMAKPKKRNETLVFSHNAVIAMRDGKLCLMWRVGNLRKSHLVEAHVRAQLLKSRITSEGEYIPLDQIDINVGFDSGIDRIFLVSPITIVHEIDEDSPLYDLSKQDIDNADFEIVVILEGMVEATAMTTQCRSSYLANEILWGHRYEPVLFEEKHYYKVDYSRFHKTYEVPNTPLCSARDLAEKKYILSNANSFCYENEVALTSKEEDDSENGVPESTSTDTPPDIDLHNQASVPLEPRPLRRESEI
Experimental: To knockdown Kir2.1 expression, RVCMs were transduced with lentiviral particles carrying cGFP and shRNA targeting KCNJ2-mRNA for the channel. Kir2.1 knockdown cells (Kir2.1kd-CMs) were identified by expression of cGFP. Cells were studied with control pipette solution, or with pipette solutions containing purified SUMO1 (1 μM) or SENP1 (2 μM). Where indicated, the control pipette solution contained diC8 PIP2. Paired patch-clamp data were analyzed by Students t-test; ***, P<0.01. […] Kir2.1kd-CMs are identified by expression of GFP (inset, scale bar=10 μm). […] The arrow indicates the change in current-magnitude between exposure to ambient O2 and 2% O2 in the same cell. Right, Concentration-response curve showing that including diC8-PIP2 in the pipette opposes hypoxic-inhibition of IK1 in control RVCMs and RVCMs expressing the scrambled shRNA. The hypoxic-response is diminished in Kir2.1kd-CMs. Data are mean±s.d. for 7-8 cells per condition. […] Current inhibition is diminished when SENP1 is included in the recording pipette and is not observed when SUMO-insensitive Kir2.1-K49Q channels are studied. Data are mean±s.d. for 6 cells per condition.
Hypoxic-inhibition of IK1/Kir2.1 is reduced by diC8-PIP2 in a concentration-dependent manner. We have shown that adding the exogenous, soluble PIP2 analog diC8-PIP2 into the patch-pipette opposes hypoxic-inhibition of IK1 (FIG. 4). […]

Which “effect on hypoxia-induced change of hPASMC inward current” value ([1]; 2% O2) does the source give for `Cc1sc(C(=O)c2cncnc2N[C@@H]2C[C@H](COS(N)(=O)=O)[C@@H](O)C2)cc1[C@@H]1NCCc2ccc(Cl)cc21` [TAK981, Subasumstat] here?
The value was “prevents hypoxia induced changes; also recorded: precludes the change in the current caused by acute hypoxia”.

And the “effect on initial current in ambient O2” value ([1]; ambient O2)?
Its value is “does not alter the magnitude or the phenotype of the initial current”.

What about the “SAE / SUMO E1 inhibition” value [2] of the same molecule?
The value was “nM-inhibitor”.

What about the selectivity [2] of the same molecule?
Its selectivity is “highly selective”.

And the “effect on hypoxic decrease in Kir2.4 currents” value ([3]; preincubated with 100 nM for one hour, 2% O2)?
Its value is “abolished; also recorded: precludes hypoxic inhibition of Kir2 currents”.

What about the “tolerability of pretreatment in cells” value ([3]; pretreating cells) of the same molecule?
The value was “tolerated by the cells”.

B1: SENP1: purified deSUMOylating enzyme (SUMO specific protease) introduced via the recording pipette or expressed (protein, UniProt Q9P0U3 1-644, looked up)
Sentrin-specific protease 1: MDDIADRMRMDAGEVTLVNHNSVFKTHLLPQTGFPEDQLSLSDQQILSSRQGHLDRSFTCSTRSAAYNPSYYSDNPSSDSFLGSGDLRTFGQSANGQWRNSTPSSSSSLQKSRNSRSLYLETRKTSSGLSNSFAGKSNHHCHVSAYEKSFPIKPVPSPSWSGSCRRSLLSPKKTQRRHVSTAEETVQEEEREIYRQLLQMVTGKQFTIAKPTTHFPLHLSRCLSSSKNTLKDSLFKNGNSCASQIIGSDTSSSGSASILTNQEQLSHSVYSLSSYTPDVAFGSKDSGTLHHPHHHHSVPHQPDNLAASNTQSEGSDSVILLKVKDSQTPTPSSTFFQAELWIKELTSVYDSRARERLRQIEEQKALALQLQNQRLQEREHSVHDSVELHLRVPLEKEIPVTVVQETQKKGHKLTDSEDEFPEITEEMEKEIKNVFRNGNQDEVLSEAFRLTITRKDIQTLNHLNWLNDEIINFYMNMLMERSKEKGLPSVHAFNTFFFTKLKTAGYQAVKRWTKKVDVFSVDILLVPIHLGVHWCLAVVDFRKKNITYYDSMGGINNEACRILLQYLKQESIDKKRKEFDTNGWQLFSKKSQEIPQQMNGSDCGMFACKYADCITKDRPINFTQQHMPYFRKRMVWEILHRKLL
With B1 as the molecule, how does the “effect on hypoxic inhibition of Kir2.1 channels” value [4] read?
Its value is “ameliorated”.
